Measurements as given in ChEMBL document CHEMBL6096639, “Discovery of the first selective and potent PROTAC degrader for the pseudokinase TRIB2” (Eur J Med Chem, 2025).
One block for each molecule: values may come before it. Calls of active or inactive are those of the source. The rule behind the calls is not given here.

Tests used:
[1] = biological target: T1, Protein cereblon/Tribbles homolog 2 (Homo sapiens, UniProt Q96SW2+Q92519); assay: PROTAC activity at CRBN/TRIB2 in human PC-3 cells assessed as induction of TRIB2 degradation by measuring maximal efficacy at 100 nM measured after 24 hrs by immunoblot analysis relative to control; format: cell-based
Target sequence in this assay (Q96SW2 whole entry, looked up, one chain of several): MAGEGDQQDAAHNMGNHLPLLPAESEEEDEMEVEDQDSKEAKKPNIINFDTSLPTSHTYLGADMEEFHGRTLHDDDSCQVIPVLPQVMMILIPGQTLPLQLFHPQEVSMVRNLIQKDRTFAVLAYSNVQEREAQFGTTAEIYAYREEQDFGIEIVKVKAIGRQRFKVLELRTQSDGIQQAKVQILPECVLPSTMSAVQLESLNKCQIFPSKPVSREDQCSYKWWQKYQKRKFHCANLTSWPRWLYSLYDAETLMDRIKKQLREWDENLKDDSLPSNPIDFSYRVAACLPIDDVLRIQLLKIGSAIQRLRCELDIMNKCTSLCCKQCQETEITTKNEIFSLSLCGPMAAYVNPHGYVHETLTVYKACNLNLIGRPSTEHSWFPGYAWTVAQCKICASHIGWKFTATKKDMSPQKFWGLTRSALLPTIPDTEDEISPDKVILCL

PC-3 [2] = assay: Antiproliferative activity against human PC-3 cells assessed as cell viability for 5 days by CTG assay; format: functional, cell-based; settings: PC-3, 120 h
[3] = Antiproliferative activity against human LTL-331R-CL cells assessed as cell viability for 5 days by CTG assay; format: functional, cell-based; settings: 120 h
[4] = biological target: T1, Protein cereblon/Tribbles homolog 2; assay: PROTAC activity at CRBN/TRIB2 in human PC-3 cells assessed as induction of TRIB2 degradation by measuring maximal efficacy at 1 nM measured after 24 hrs by immunoblot analysis relative to control; format: cell-based
Target sequence in this assay (Q96SW2 whole entry, looked up, one chain of several): as above

Tribbles homolog 2 = biological target: T2, Tribbles homolog 2 (Homo sapiens, UniProt Q92519); assay: Inhibition of TRIB2 (unknown origin) assessed as reduction in ATP binding affinity incubated for 120 mins in presence of Mg/ATP by radiometric kinase assay
T2 sequence (Q92519 whole entry): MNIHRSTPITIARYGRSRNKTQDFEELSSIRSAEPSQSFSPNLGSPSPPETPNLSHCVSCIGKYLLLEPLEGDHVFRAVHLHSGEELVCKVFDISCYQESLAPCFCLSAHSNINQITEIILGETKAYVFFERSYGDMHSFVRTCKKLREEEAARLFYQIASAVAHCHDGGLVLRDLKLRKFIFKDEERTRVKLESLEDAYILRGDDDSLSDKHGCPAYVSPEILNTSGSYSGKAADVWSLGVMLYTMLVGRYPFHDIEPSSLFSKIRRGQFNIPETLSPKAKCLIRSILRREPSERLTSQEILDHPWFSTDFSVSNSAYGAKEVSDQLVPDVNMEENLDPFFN

[5] = biological target: T3, Tribbles homolog 2 (Homo sapiens) (UniProt Q92519); assay: Induction of thermal stabilization of TRIB2 in human PC-3 cells […] at 2 uM preincubated for 3 hrs followed by compound washout and incubated under 45 to 50 degreeC for 3 mins by CETSA based immunoblotting analysis; format: cell-based
T3 sequence (whole entry): T2 sequence (Q92519 whole entry)

HepG2 = assay: Antiproliferative activity against human HepG2 cells assessed as cell viability; format: functional
A549 = assay: Antiproliferative activity against human A549 cells assessed as cell viability; format: functional
[6] = biological target: T1, Protein cereblon/Tribbles homolog 2; assay: PROTAC activity at CRBN/TRIB2 in human LTL-331R-CL cells assessed as induction of TRIB2 degradation at 1 uM by immunoblotting analysis; format: cell-based
Target sequence in this assay (Q96SW2 whole entry, looked up, one chain of several): as the sequence (Q96SW2 whole entry, looked up, one chain of several) above

[7] = biological target: T1, Protein cereblon/Tribbles homolog 2; assay: PROTAC activity at CRBN/TRIB2 in human NCI-H660 cells assessed as induction of TRIB2 degradation at 1 uM by immunoblotting analysis; format: cell-based
Target sequence in this assay (Q96SW2 whole entry, looked up, one chain of several): as the sequence (Q96SW2 whole entry, looked up, one chain of several) above

[8] = biological target: T1, Protein cereblon/Tribbles homolog 2; assay: PROTAC activity at CRBN/TRIB2 in human PC-3 cells assessed as half maximal degradation by measuring half life at 500 nM by immunoblotting analysis; format: cell-based
Target sequence in this assay (Q96SW2 whole entry, looked up, one chain of several): as the sequence (Q96SW2 whole entry, looked up, one chain of several) above

[9] = biological target: T1, Protein cereblon/Tribbles homolog 2; assay: PROTAC activity at CRBN/TRIB2 in human PC-3 cells assessed as induction of TRIB2 degradation at 500 nM in presence of 1 uM bortezomib proteasome inhibitor pretreatment for 16 hrs by Western blot analysis; format: cell-based
Target sequence in this assay (Q96SW2 whole entry, looked up, one chain of several): as the sequence (Q96SW2 whole entry, looked up, one chain of several) above

[10] = biological target: T1, Protein cereblon/Tribbles homolog 2; assay: PROTAC activity at CNRB/TRIB2 in human PC-3 cells assessed as induction of TRIB2 degradation at 0.5 uM pretreated with pomalidomide followed by compound addition and measured after 16 hrs by immunoblotting assay; format: cell-based
[11] = biological target: T4, von Hippel-Lindau disease tumor suppressor/Tribbles homolog 2 (Homo sapiens) (UniProt P40337+Q92519); assay: PROTAC activity at VHL/TRIB2 in human PC-3 cells assessed as induction of TRIB2 degradation at 100 nM for 24 hrs by immunoblotting analysis; format: cell-based
[12] = biological target: T1, Protein cereblon/Tribbles homolog 2; assay: PROTAC activity at CRBN/TRIB2 in human PC-3 cells assessed as induction of TRIB2 degradation for 24 hrs by immunoblot analysis; format: cell-based
[13] = biological target: T1, Protein cereblon/Tribbles homolog 2; assay: PROTAC activity at CNRB/TRIB2 in human LTL-331R-CL cells assessed as induction of TRIB2 degradation at 1 uM for 4 hrs by immunoblotting assay; format: cell-based
PC-3 [14] = assay: Antiproliferative activity against human PC-3 cells assessed as cell viability at 1 uM by CTG assay; format: functional, cell-based
[15] = biological target: T4, von Hippel-Lindau disease tumor suppressor/Tribbles homolog 2 (Homo sapiens); assay: PROTAC activity at VHL/TRIB2 in human PC-3 cells assessed as induction of TRIB2 downregulation at 1000 nM for 24 hrs by immunoblotting analysis; format: cell-based
[16] = biological target: T1, Protein cereblon/Tribbles homolog 2; assay: PROTAC activity at CNRB/TRIB2 in human LTL-331R-CL cells assessed as induction of TRIB2 degradation at 1 uM for 4 hrs by comprehensive proteomic analysis using a tandem mass tag (TMT) labeled mass spectrometry; format: cell-based
LTL-331R-CL = assay: Antiproliferative activity against human LTL-331R-CL cells assessed as cell viability at 1 uM by CTG assay; format: functional, cell-based

T4 sequence (P40337 whole entry, looked up, one chain of several): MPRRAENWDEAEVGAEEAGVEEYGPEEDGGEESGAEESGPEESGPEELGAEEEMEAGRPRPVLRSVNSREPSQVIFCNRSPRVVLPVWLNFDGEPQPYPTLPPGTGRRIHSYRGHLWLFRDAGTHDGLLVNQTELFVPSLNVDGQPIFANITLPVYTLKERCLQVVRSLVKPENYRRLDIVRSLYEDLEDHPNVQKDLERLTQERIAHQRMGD

Emax [1]: 58.2%
SMILES: O=C1CCC(N2C(=O)c3ccc(NCCCCCCCC(=O)N4CCc5ccc(NC(=O)c6n[nH]c7ccc(-c8cccnc8F)cc67)cc5C4)cc3C2=O)C(=O)N1 (stereo unspecified)

Emax [1]: 84.1%
SMILES: O=C1CCC(N2C(=O)c3ccc(NCCCC(=O)N4CCc5ccc(NC(=O)c6n[nH]c7ccc(-c8cccnc8F)cc67)cc5C4)cc3C2=O)C(=O)N1 (stereo unspecified)

IC50 (PC-3 [2]): > 5000 nM
SMILES: Nc1cccc2c1C(=O)N(C1CCC(=O)NC1=O)C2=O (stereo unspecified) [POMALIDOMIDE]
IC50 [3]: > 30000 nM

Emax [4]: 24.5% | Emax [1]: 85.6%
SMILES: O=C1CCC(N2C(=O)c3ccc(NCCCCCC(=O)N4CCc5ccc(NC(=O)c6n[nH]c7ccc(-c8cccnc8F)cc67)cc5C4)cc3C2=O)C(=O)N1 (stereo unspecified)

IC50 (Tribbles homolog 2): 65.2 nM | Activity [5]: Active | IC50 (PC-3 [2]): 802 nM
SMILES: O=C(Nc1ccc2c(c1)CNCC2)c1n[nH]c2ccc(-c3cccnc3F)cc12
IC50 [3]: 868 nM | Activity (HepG2): 10% | Activity (A549): 12%

Activity [6]: Active | Activity [7]: Time-dependent-effect | Activity [5]: Active | T1/2 [8]: > 5.5 h | Activity [9]: inactive | Activity [10]: inactive | IC50 (PC-3 [2]): 3.9 nM | Activity [11]: 100% | Activity [12]: Dose-dependent-effect | DC50 [12]: 16.8 nM | Activity [13]: Active | Activity [15]: Active; Mild Trib2 Degradation Observed | Emax [1]: 92% | Activity [16]: Active
SMILES: O=C1CCC(N2C(=O)c3ccc(NCCCCCCCCCC(=O)N4CCc5ccc(NC(=O)c6n[nH]c7ccc(-c8cccnc8F)cc67)cc5C4)cc3C2=O)C(=O)N1 (stereo unspecified)
Activity (PC-3 [14]): Active | IC50 [3]: 30.4 nM | Activity (LTL-331R-CL): Active

IC50 (PC-3 [2]): > 5000 nM
SMILES: CN1C(=O)CCC(N2C(=O)c3ccc(NCCCCCCCCCC(=O)N4CCc5ccc(NC(=O)c6n[nH]c7ccc(-c8cccnc8F)cc67)cc5C4)cc3C2=O)C1=O (stereo unspecified)
IC50 [3]: > 30000 nM
